What was measured:
[1] = target: Phosphatidylinositol 4-phosphate 5-kinase type-1 alpha (Homo sapiens) (UniProt Q99755); conditions: Compound concentration 1000.0 nM
[2] = target: T1, 5-hydroxytryptamine receptor 3A (Homo sapiens) (UniProt P46098); conditions: Compound concentration 10.0 uM
T1 sequence (whole entry): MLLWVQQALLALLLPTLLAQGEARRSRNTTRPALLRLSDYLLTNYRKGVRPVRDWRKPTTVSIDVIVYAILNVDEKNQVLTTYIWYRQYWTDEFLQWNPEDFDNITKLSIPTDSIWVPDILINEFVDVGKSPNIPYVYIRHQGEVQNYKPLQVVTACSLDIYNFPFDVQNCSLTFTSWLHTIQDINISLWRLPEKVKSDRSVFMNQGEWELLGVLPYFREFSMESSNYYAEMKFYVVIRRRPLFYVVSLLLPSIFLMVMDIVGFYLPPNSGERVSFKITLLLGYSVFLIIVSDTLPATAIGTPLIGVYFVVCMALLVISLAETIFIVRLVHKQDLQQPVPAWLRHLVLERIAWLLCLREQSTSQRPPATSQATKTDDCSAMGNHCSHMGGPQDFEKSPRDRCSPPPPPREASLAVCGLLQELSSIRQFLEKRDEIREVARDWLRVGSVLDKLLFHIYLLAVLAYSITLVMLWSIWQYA

[3] = target: Receptor tyrosine-protein kinase erbB-4 (Homo sapiens) (UniProt Q15303); conditions: Compound concentration 1000.0 nM
[4] = target: Serine/threonine-protein kinase WNK1 (Homo sapiens) (UniProt Q9H4A3); conditions: Compound concentration 1000.0 nM
[5] = target: Voltage-dependent L-type calcium channel subunit alpha-1C (DHP site) (Rattus norvegicus, UniProt P22002); experiment: CA+/DHPSI/RA Eurofins-Panlabs selectivity data (BI); conditions: compound concentration 10 uM, read-out: % Ctrl
Chain of Voltage-dependent L-type calcium channel subunit alpha-1C (DHP site) (P22002 whole entry): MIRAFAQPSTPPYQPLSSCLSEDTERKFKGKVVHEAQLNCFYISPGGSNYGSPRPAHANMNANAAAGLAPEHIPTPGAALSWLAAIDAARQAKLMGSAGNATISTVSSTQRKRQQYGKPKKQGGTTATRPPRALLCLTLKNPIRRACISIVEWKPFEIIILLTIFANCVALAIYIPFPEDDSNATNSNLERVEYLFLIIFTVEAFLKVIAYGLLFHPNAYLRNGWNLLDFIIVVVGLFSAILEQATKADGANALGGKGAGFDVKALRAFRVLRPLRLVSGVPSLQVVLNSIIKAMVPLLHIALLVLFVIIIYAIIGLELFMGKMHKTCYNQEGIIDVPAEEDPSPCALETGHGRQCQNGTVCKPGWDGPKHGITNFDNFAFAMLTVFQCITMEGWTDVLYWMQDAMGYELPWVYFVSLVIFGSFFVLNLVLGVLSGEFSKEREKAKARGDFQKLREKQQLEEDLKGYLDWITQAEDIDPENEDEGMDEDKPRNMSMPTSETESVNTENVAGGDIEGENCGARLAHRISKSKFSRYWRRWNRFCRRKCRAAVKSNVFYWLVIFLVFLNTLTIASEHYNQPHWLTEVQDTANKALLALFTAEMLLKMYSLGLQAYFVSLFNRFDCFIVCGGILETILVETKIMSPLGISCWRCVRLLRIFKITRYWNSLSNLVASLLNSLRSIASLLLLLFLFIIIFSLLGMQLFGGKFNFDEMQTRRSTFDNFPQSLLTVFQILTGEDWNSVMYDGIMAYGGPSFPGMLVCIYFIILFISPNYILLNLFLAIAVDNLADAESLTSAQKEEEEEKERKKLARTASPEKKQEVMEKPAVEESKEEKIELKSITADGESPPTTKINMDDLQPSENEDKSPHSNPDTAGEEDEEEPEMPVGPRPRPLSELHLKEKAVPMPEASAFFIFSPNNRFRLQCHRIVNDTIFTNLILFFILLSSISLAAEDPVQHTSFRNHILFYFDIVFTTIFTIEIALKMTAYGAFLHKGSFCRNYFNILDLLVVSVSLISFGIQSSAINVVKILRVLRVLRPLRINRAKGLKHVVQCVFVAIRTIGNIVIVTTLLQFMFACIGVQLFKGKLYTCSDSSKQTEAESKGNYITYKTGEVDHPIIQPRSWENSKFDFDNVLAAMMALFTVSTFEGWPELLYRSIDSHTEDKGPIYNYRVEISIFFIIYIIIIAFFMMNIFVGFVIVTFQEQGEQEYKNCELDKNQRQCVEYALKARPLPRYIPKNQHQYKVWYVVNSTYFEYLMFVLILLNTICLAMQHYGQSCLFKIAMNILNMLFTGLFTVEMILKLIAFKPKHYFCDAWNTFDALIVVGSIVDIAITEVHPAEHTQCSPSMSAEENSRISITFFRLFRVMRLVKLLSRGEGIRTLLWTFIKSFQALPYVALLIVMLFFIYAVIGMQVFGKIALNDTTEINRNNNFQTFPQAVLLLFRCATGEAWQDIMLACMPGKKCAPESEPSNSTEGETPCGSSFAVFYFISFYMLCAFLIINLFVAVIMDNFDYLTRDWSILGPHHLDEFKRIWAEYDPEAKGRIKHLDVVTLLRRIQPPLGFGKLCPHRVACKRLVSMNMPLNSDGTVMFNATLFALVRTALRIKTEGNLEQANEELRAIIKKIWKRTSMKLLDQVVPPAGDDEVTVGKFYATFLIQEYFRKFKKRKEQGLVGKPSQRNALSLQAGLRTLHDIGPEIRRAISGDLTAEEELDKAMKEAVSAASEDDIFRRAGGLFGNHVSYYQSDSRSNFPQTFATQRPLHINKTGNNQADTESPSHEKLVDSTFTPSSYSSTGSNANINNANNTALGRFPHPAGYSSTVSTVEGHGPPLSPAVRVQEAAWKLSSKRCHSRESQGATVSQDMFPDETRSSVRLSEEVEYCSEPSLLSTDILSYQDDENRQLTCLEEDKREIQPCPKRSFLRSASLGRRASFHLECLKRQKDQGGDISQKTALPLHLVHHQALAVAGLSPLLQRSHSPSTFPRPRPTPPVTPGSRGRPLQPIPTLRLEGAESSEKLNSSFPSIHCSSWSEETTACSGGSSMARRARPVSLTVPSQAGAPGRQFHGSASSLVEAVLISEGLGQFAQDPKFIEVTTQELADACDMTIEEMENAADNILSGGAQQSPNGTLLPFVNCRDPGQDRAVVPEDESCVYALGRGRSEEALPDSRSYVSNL

[6] = system: Proto-oncogene tyrosine-protein kinase receptor Ret (Homo sapiens), P07949 [V804M]; conditions: Compound concentration 1000.0 nM
Chain of Proto-oncogene tyrosine-protein kinase receptor Ret (Homo sapiens), P07949 [V804M] (P07949 whole entry V804M): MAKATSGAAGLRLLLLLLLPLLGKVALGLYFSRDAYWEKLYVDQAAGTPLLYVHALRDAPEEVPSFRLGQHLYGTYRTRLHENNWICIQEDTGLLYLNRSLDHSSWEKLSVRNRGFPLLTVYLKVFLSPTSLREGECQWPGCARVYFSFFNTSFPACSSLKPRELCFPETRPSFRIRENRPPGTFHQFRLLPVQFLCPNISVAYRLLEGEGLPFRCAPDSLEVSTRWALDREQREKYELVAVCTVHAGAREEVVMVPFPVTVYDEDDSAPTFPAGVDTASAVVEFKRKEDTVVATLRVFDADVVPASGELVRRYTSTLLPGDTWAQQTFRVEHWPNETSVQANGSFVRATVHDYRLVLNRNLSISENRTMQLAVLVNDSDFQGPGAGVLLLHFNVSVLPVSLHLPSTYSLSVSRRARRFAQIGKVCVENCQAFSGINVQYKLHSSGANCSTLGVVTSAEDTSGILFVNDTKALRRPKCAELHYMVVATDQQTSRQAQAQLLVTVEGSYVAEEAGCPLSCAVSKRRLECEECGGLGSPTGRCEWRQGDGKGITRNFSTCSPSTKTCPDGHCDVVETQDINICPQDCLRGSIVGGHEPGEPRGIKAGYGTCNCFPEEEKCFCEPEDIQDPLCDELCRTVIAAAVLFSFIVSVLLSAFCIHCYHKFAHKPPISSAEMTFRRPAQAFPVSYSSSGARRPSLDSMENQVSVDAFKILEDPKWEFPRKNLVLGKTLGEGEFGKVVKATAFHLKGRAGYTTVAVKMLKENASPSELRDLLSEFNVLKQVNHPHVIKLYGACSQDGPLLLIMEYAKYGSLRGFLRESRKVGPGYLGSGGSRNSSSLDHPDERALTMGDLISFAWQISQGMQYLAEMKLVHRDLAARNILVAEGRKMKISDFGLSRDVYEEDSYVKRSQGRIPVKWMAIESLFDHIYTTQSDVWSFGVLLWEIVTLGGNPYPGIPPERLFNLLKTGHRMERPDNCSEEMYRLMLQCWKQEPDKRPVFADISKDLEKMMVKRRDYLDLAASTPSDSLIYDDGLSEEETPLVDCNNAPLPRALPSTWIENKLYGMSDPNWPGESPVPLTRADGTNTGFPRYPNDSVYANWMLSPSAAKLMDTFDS

[7] = system: Tyrosine-protein kinase ABL1 (Homo sapiens), P00519 [F317I]; conditions: Compound concentration 1000.0 nM
[8] = target: 5-hydroxytryptamine receptor 1B (Homo sapiens) (UniProt P28222); conditions: Compound concentration 10.0 uM
[9] = target: Protein-tyrosine kinase 2-beta (Homo sapiens) (UniProt Q14289); conditions: Compound concentration 1000.0 nM
[10] = target: Casein kinase II subunit alpha' (Homo sapiens) (UniProt P19784); conditions: Compound concentration 1000.0 nM
[11] = target: 3-phosphoinositide-dependent protein kinase 1 (Homo sapiens) (UniProt O15530); conditions: Compound concentration 1000.0 nM
Chain of 3-phosphoinositide-dependent protein kinase 1 (Homo sapiens) (O15530 whole entry): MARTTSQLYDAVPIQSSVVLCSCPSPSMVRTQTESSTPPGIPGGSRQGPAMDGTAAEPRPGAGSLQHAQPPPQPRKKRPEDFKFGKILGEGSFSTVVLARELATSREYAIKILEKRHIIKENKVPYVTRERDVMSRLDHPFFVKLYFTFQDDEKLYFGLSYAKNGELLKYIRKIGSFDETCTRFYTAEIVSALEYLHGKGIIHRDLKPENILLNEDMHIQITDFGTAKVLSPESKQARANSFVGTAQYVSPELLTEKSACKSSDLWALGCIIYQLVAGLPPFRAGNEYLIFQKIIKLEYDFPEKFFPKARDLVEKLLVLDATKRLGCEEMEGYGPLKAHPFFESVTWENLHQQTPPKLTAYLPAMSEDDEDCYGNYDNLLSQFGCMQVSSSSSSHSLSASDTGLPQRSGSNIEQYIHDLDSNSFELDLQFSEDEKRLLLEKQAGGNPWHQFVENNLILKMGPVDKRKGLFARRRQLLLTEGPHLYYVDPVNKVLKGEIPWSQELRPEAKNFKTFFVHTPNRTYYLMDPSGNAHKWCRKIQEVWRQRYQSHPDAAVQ

[12] = target: Ribosomal protein S6 kinase alpha-3 (Homo sapiens) (UniProt P51812); conditions: Compound concentration 1000.0 nM
[13] = target: Serine/threonine-protein kinase LATS1 (Homo sapiens) (UniProt O95835); conditions: Compound concentration 1000.0 nM
[14] = target: Ribosomal protein S6 kinase alpha-2 (Homo sapiens) (UniProt Q15349); conditions: Compound concentration 1000.0 nM
[15] = target: Ephrin type-B receptor 3 (Homo sapiens) (UniProt P54753); conditions: Compound concentration 1000.0 nM
Chain of Ephrin type-B receptor 3 (Homo sapiens) (P54753 whole entry): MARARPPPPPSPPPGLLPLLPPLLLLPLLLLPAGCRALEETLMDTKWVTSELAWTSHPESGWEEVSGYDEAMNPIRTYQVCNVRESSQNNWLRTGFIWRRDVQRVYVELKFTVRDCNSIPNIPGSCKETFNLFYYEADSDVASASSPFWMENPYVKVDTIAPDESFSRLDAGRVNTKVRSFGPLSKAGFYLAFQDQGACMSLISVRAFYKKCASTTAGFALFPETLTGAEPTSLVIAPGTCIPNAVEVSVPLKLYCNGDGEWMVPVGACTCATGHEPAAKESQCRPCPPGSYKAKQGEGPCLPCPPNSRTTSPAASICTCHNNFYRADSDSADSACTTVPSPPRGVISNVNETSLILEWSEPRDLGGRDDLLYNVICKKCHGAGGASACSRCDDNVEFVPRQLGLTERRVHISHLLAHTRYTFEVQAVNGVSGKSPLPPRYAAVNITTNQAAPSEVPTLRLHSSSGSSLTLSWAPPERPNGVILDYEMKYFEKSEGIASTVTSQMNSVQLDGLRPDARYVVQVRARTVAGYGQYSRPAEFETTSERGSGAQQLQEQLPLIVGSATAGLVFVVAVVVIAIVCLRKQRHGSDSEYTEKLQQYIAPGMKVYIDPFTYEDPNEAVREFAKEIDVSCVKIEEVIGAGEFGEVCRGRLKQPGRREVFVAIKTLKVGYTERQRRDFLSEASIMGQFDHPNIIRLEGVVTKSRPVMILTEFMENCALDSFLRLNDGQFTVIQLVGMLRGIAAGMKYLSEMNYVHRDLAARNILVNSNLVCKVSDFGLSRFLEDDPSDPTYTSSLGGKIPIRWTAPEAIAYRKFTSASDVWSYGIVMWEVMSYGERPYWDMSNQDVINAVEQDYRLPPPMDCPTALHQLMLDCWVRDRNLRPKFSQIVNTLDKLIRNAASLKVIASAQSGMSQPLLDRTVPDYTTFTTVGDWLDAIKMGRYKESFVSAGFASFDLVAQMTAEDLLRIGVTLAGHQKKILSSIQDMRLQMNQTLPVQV

[16] = target: Tyrosine-protein kinase ZAP-70 (Homo sapiens) (UniProt P43403); conditions: Compound concentration 1000.0 nM
[17] = target: Mast/stem cell growth factor receptor Kit (Homo sapiens) (UniProt P10721); conditions: Compound concentration 1000.0 nM
[18] = target: Mitogen-activated protein kinase kinase kinase 5 (Homo sapiens) (UniProt Q99683); conditions: Compound concentration 1000.0 nM
[19] = system: Tyrosine-protein kinase ABL1 (Homo sapiens), P00519 [H396P]; conditions: Compound concentration 1000.0 nM
[20] = target: Mitogen-activated protein kinase kinase kinase kinase 1 (Homo sapiens) (UniProt Q92918); conditions: Compound concentration 1000.0 nM
[21] = target: Acetylcholinesterase (Homo sapiens) (UniProt P22303); experiment: ACHOLINEST Eurofins-Panlabs selectivity data (BI); conditions: Compound concentration 10.0 uM
[22] = target: Activin receptor type-2A (Homo sapiens) (UniProt P27037); conditions: Compound concentration 1000.0 nM
[23] = target: Tyrosine-protein kinase Mer (Homo sapiens) (UniProt Q12866); conditions: Compound concentration 1000.0 nM
[24] = target: Delta-type opioid receptor (Homo sapiens) (UniProt P41143); conditions: Compound concentration 10.0 uM
[25] = target: cAMP-dependent protein kinase catalytic subunit alpha (Homo sapiens) (UniProt P17612); conditions: Compound concentration 1000.0 nM
[26] = target: Serotonin 2 (5-HT2) receptor (Rattus norvegicus) (UniProt P30994+P08909+P14842); experiment: 5HT2/R Eurofins-Panlabs selectivity data (BI); assay type: protein assay; conditions: Compound concentration 10.0 uM
[27] = target: Serine/threonine-protein kinase mTOR (Homo sapiens) (UniProt P42345); conditions: Compound concentration 1000.0 nM
[28] = target: Mitogen-activated protein kinase kinase kinase 10 (Homo sapiens) (UniProt Q02779); conditions: Compound concentration 1000.0 nM
[29] = target: Cyclin-dependent kinase-like 5 (Homo sapiens) (UniProt O76039); conditions: Compound concentration 1000.0 nM
[30] = target: Tyrosine-protein kinase Fes/Fps (Homo sapiens) (UniProt P07332); conditions: Compound concentration 1000.0 nM
[31] = target: Nitric oxide synthase 3 (Rattus norvegicus) (UniProt Q62600); experiment: CNOS Eurofins-Panlabs selectivity data (BI); conditions: Compound concentration 10.0 uM
[32] = system: Receptor-type tyrosine-protein kinase FLT3 (Homo sapiens), P36888 [UNDEFINED MUTATION]; conditions: Compound concentration 1000.0 nM
Rattus norvegicus = species on record: Rattus norvegicus; conditions: Compound concentration 10.0 uM
[33] = target: Sodium-dependent dopamine transporter (Homo sapiens, UniProt Q01959); conditions: Compound concentration 10.0 uM
[34] = target: Cyclin-dependent kinase 7 (Homo sapiens) (UniProt P50613); conditions: Compound concentration 1000.0 nM
[35] = target: Uncharacterized serine/threonine-protein kinase SBK3 (Homo sapiens) (UniProt P0C264); conditions: Compound concentration 1000.0 nM
[36] = system: ALK tyrosine kinase receptor (Homo sapiens), Q9UM73 [L1196M]; conditions: Compound concentration 1000.0 nM
[37] = target: Leucine-rich repeat serine/threonine-protein kinase 2 (Homo sapiens) (UniProt Q5S007); conditions: Compound concentration 1000.0 nM

`CCOCCn1cc(C(=O)Nc2ccc(-n3nc(-c4cccnc4)cc3C(F)(F)F)cn2)ccc1=O` [BI 1935] was tested, and the residual activity [1] was 100%, the inhibition [2] was 2.27% and the residual activity [3] was 100%. For the same compound, the residual activity [4] was 82%, the activity at 10 µM [5] was 94.5% (not active) and the residual activity [6] was 100%. The residual activity [7] was 74%, the inhibition [8] was 18.8% and the residual activity [9] was 100%. The residual activity [10] was 100%, the residual activity [11] was 87% and the residual activity [12] was 84%. It also gave a residual activity [13] of 69%, a residual activity [14] of 84% and a residual activity [15] of 89%. It also gave a residual activity [16] of 67%, a residual activity [17] of 100% and a residual activity [18] of 100%. It also gave a residual activity [19] of 94%, a residual activity [20] of 81% and a residual activity [21] of 41%. For the same compound, the residual activity [22] was 100%, the residual activity [23] was 83% and the inhibition [24] was -6.39%. It also gave a residual activity [25] of 92%, a residual activity [26] of 87% and a residual activity [27] of 100%. For the same compound, the residual activity [28] was 100%, the residual activity [29] was 90% and the residual activity [30] was 82%. The residual activity [31] was 112%, the residual activity [32] was 86% and the inhibition (Rattus norvegicus) was -5.52%. For the same compound, the inhibition [33] was 82.1%, the residual activity [34] was 88% and the residual activity [35] was 78%. It also gave a residual activity [36] of 73% and a residual activity [37] of 100%.
